Data from patent EP1311486B1, “USES OF THALIPORPHINE OR ITS DERIVATIVES IN TREATMENT OF CARDIAC DISEASES AND PREPARATION OF SAME” (Lotus Pharmaceutical Co., Ltd., priority 2000, dated 2002).

What was measured:
[1] = DPPH radical scavenging, absorbance at 517 nm; format: biochemical; conditions: DPPH 100µM, 25°C, 30 minutes
Description: After incubation of various concentrations of THP with 1,1-diphenyl-2-picrylhydrazyl (DPPH, 100µM) at room temperature (25°C) for 30 minutes, decrease in the absorbance for DPPH at 517 nm was measured to determine the dose-response curve of THP in scavenging DPPH radicals.
In the 1,1-diphenyl-2-picrylhydrazyl (DPPH) assay system, the free radical scavenging activity of THP is expressed as IC0.200. The decrease in optical absorbance at 517 nm after addition of THP is monitored following the trapping of the unpaired electron of DPPH. Referring to FIG.4, THP scavenges DPPH in a concentration-dependent manner with IC0.200 of 12.4µmol/L.

[2] = test system: plasma NO; experiment: Plasma NO release (NO/ozone chemiluminescence) after ischemia or ischemia-reperfusion; format: in vivo, rats; conditions: for NO (µmol/L) release, Ischemic / NO (µmol/L) release, Reperfused: Operated
Description: Myocardial ischemia was performed by a temporary tightening of the silk ligature around the left main coronary artery. Reperfusion was achieved by releasing the tension applied to the ligature (operated groups). Sham operated animals underwent all surgical procedures, apart from the fact that the silk, passing around the left coronary artery, was not tied (sham groups). Animals were infused with a bolus of THP (3.5x10^-7, 3.5x10^-6, 3.5x10^-5 g/kg), L-NAME (N^∞-nitro-L-arginine methyl ester; 1x10^-3 g/kg) or vehicle (dimethyl sulfoxide/ NaCl 0.9%, 1:10^3; v/v) from a jugular vein 15 minutes before coronary occlusion. The coronary artery was occluded for 30 minutes or 5 minutes followed by 30 minutes reperfusion and with the animals then divided randomly in the following groups: (1) sham + vehicle; (2) sham + THP (3.5x10^-5g/kg); (3) operated + vehicle; (4) operated + THP (3.5x10^-7 g/kg); (5) operated + THP (3.5x10^-6 g/kg); (6) operated + THP (3.5x10^-5 g/kg); (7) operated + L-NAME (1x10^-3 g/kg) + THP (3.5x10^-5 g/kg). Before and during the ischemia or reperfusion period, heart rate (HR), blood pressure (BP) and ECG changes were recorded. Ventricular ectopic activity was evaluated according to the diagnostic criteria advocated in the Lambeth Convention. The incidence and duration of ventricular tachyarrhythmias, including ventricular tachycardia (VT) and ventricular fibrillation (VF), in surviving animals was determined. The Mann-Whitney rank-sum test was used to analyze the differences in the duration of VT and VF between vehicle and drug treated groups. The BP and HR changes between vehicle and drug treated rats in the arrhythmia study were analyzed by ANOVA (analysis of variance) followed by Bonferroni's test. The difference in the percentage incidence of VT, VF and mortality rate was analyzed with a Chi-square test. Table 2 Effect of THP on ischemia-induced arrhythmias in the in vivo anesthetized rat
Cellular damage was evaluated by measuring the plasma LDH. Arterial blood samples were drawn from the carotid catheter at the end of ischemia or ischemia-reperfusion, collected in heparinized tubes. The blood was kept at 4°C until it was centrifuged at 2000 xg for 15 minutes. The plasma was recovered and aliquots were used for determination of LDH activity with a commercial kit from Sigma. The deproteinized plasma samples were frozen and kept until analysis. NO was measured by the NO/ozone chemiluminescence technique described in Yanu F. et al., (1997) Clin. Chem. 43:657-662. The difference in plasma NO and LDH were analyzed statistically using unpaired Student's t-test. Table 5 Effects of THP on LDH (U/L) release
Nitric oxide (NO) release is measured by the presence of nitrite (NO2^-) and nitrate (NO3^-) in the plasma from an animal with 30 minutes ischemia or 5 minutes followed by 30 minutes reperfusion. In sham animals, NO is measured to be 9.6±2.3 and 7.6±0.9µmol/L without and with THP pretreatment, respectively. In the operated animals, THP exerts a dramatically increase of plasma NO; at a dose of 3.5x10^-6 g/kg, there are 2- and 3.5-fold increases compared to that of the untreated (vehicle) ischemic or ischemic-reperfused animals, respectively (Table 6).

[3] = test system: guinea pig right ventricular strips; experiment: Ouabain-induced arrhythmia in electrically driven right ventricular strips; conditions: 10-20µM after 0.6-0.8µM ouabain
Description: The arrhythmia was then induced 5-10 minutes after. 10-20µM THP or its derivatives were administered to reverse the ouabain-induced arrhythmia. 6-7.
Referring to FIGs. […] The arrhythmia is then induced 5-10 minutes after.

[4] = test system: Human low density lipoprotein (LDL); experiment: Copper-induced lipid peroxidation of LDL (TBARS formation); format: biochemical; conditions: LDL 100µg/ml, 37°C, CuSO4 12 hours
Description: Human low density lipoprotein (LDL, 100µg/ml) was preincubated with DMSO (0.1%, basal and control) or various concentrations of THP at 37°C for 10 minutes, and then CuSO4 was added, except for basal, and incubated for another 12 hours to determine the impact of THP on lipid peroxidation.
The impact of THP on lipid peroxidation is further assessed by evaluating its effect on the formation of TBARS (thiobarbituric acid-reactive substance) from LDL. Exposure of LDL to CuSO4 within 12 hours results in the peroxidation of LDL, as indicated by the increased content of TBARS (FIG. 3).

[5] = test system: transient outward potassium current (Ito); experiment: Inhibition of transient outward potassium current; conditions: rats
Description: Moreover, 3-10µM THP prolongs the action potential duration in the atria or ventricles of both rats and guinea pigs (data not shown).

In the case of `COc1cc2c(cc1OC)-c1c(O)c(OC)cc3c1C(C2)N(C)CC3` (single isomer, unassigned; (+)) [THP, (+)-Thaliporphine], the “IC0.200, scavenging of DPPH” value [1] is reported as 12.4 µmol/L, the “increase of plasma NO compared to untreated (vehicle) ischemic animals” value ([2]; 3.5x10^-6 g/kg, ischemic) is reported as 2 fold and the “increase of plasma NO compared to untreated (vehicle) ischemic-reperfused animals” value ([2]; 3.5x10^-6 g/kg, ischemic-reperfused) is reported as 3.5 fold. For the same compound, the “NO (µmol/L) release, Ischemic” value ([2]; THP 3.5x10^-5 g/kg) was 19.1 ± 5.5 µmol/L, the “NO (µmol/L) release, Reperfused” value ([2]; THP 3.5x10^-5 g/kg) was 30.4 ± 1.9 µmol/L and the “NO (µmol/L) release, Ischemic” value ([2]; THP 3.5x10^-6 g/kg) was 19.4 ± 4.7 µmol/L. The “NO (µmol/L) release, Reperfused” value ([2]; THP 3.5x10^-6 g/kg) was 28.4 ± 4.3 µmol/L, the “NO (µmol/L) release, Ischemic” value ([2]; THP 3.5x10^-7 g/kg) was 6.6 ± 0.6 µmol/L and the “NO (µmol/L) release, Reperfused” value ([2]; THP 3.5x10^-7 g/kg) was 8.0 ± 1.7 µmol/L. For the same compound, the “NO (µmol/L) release, Non-ischemic” value ([2]; Sham-operated, THP 3.5x10^-5 g/kg) was 7.6 ± 0.9 µmol/L, the “reversal of ouabain-induced arrhythmia” value [3] was “effective in reversing the arrhythmia” and the IC50 [4] was 15.7 µM. For the same compound, the “transient outward potassium current (Ito)” value [5] was “markedly inhibit”.
